Legend:
[1] = tested on: mice; assay: Streptozotocin-induced diabetic neuropathy, von Frey test (tactile allodynia); assay type: in vivo, Albino Swiss mice; details: diabetic (STZ) mice, 10 mg/kg i.p.
Procedure: The induction of diabetes neuropathy in mice was achieved through the administration of streptozotocin (STZ), dissolved in PBS at a dose of 200 mg/kg in a constant volume of 0.1 mL/10 g of mouse body weight, intraperitoneally; (n = 50). Blood glucose levels were measured immediately prior to the administration of streptozotocin and 14 and 21 days following this administration in order to confirm the presence of hyperglycemia. For this purpose, 5 µL of blood was drawn from the tail vein of the mice using a strip glucose meter (AccuChek Active, Roche, Boulogne-Billancourt, France).
(§1) Furthermore, to assess the response to mechanical stimuli (i.e., tactile/mechanical) allodynia), the von Frey test was carried out with application of the electronic von Frey unit (Panlab, Cornellà de Llobregat, Spain) equipped with a fiber, the distal end of which was applied to the right hind paw of the mouse. The device automatically recorded the pressure force (in grams) applied until the paw withdrawal response occurred. In the absence of pain, an increase in the pressure value was observed. The force at which the animal withdrew its paw was considered the pain threshold for the mechanical stimulus. Measurements were taken before streptozotocin administration (in normoglycemic mice) and again 21 days later, both before and after compound administration, in diabetic mice (glucose level > 300 mg/dL) that had developed mechanical allodynia. On the day of the experiment, each mouse was placed in an observation chamber with a wire mesh bottom and was allowed to habituate for 1 h. After the habituation period, in order to obtain baseline values, each mouse was tested 3 times alternately in each hind paw, allowing at least 30 s between each measurement. Then, the mice were pretreated intraperitoneally with compound or vehicle, and 30 min later the animals were tested again and three measurements were taken, the mean of which was calculated to obtain the mean values after drug administration for each mouse. The anti-allodynic effect was defined as an increase in the pressure force value required to elicit a pain response, compared to the control group.

[2] = tested on: mice; assay: Oxaliplatin-induced neuropathic pain, von Frey test (tactile allodynia); assay type: in vivo, Albino Swiss mice; details: 10 mg/kg i.p.
Procedure: as §1
To assess the response to mechanical stimuli (i.e., tactile/mechanical allodynia), the von Frey test was performed using an electronic von Frey device (Bioseb, Vitrolles, France), as described in Section 4.4.5. In this assay, measurements were taken before and 3 h after oxaliplatin administration, as well as 7 days later. […] A total of 30 min after administration, the assessment was repeated using the same procedure.

[3] = tested on: mice; assay: Formalin test; assay type: in vivo, Albino Swiss mice; details: vs vehicle; for Reduction of pain reaction (licking duration), neurogenic phase: phase I (0–5 min); for Reduction of pain response, inflammatory phase: phase II (15–30 min)
Procedure: The pain reaction was induced by intraplantar (i.pl.) injection of 20 μL of 2.5% formalin solution into the right hind paw of the mouse (n = 136). […] Time (in seconds) spent on licking or biting the injected hind paw in selected intervals, 0–5 min (neurogenic phase) and 15–30 min (inflammatory phase), was measured in each group and was an indicator of nociceptive behavior. The procedure was based on the method described by with some modifications by.

[4] = tested on: rats; assay: Carrageenan-induced mechanical hyperalgesia (pain pressure threshold, Randall-Selitto); assay type: in vivo, Wistar rats; details: for Pain Threshold: mean ± SEM, rats; for Increase in pain threshold: vs control
Procedure: The acute and local inflammation and paw edema was induced by intraplantar (i.pl.) injection of 0.1 mL of 1% carrageenan solution in PBS into the rat’s right hind paw, according to the modified method of Winter and Lence, as described previously; (n = 84). The paw volume was measured using the dislocation of the water column of the plethysmometer (Type a, 7140; Plethysmometer, Ugo Basile, Gemonio, Italy) before (V0) and at 1, 2, and 3 h (V1, V2, V3) after i.pl. carrageenan injection. […] Vehicle (1% Tween 80) was administered by the same route as the tested compounds.
Furthermore, we performed the pain pressure threshold test to assess heightened sensitivity to mechanical stimuli. The experiment was conducted based on the method described by Randall and Selitto [58], with certain modifications. An analgesymeter (AnalgesyMeter 37215, Ugo Basile, Gemonio, Italy) was used to gradually apply increasing pressure (measured in grams) to the plantar surface of the right hind paw of the rat until paw withdrawal occurred. At this point, the intensity of the applied force (in grams) was recorded as the withdrawal threshold. The maximum force intensity was set at 250 g. Carrageenan induces a decrease in the nociceptive threshold in response to a mechanical stimulus, a condition referred to as hyperalgesia. For each rat, paw withdrawal thresholds were recorded both before (0 h) and 1, 2, and 3 h after carrageenan administration (i.e., 3.5 h after intraperitoneal pretreatment with the tested compounds). […] The analgesic effect of the tested compounds was assessed in comparison with the control group (1% Tween 80); the injection was performed intraperitoneally within 30 min of carrageenan administration. An analgesic effect occurs when the compound administered produces a pain response with greater pressure than the control group.

[5] = tested on: rats; assay: Carrageenan-induced paw edema (plethysmometer); assay type: in vivo, Wistar rats; details: for Change in Edema Volume: mean ± SEM, rats; for Reduction in edema volume: vs control
Procedure: The acute and local inflammation and paw edema was induced by intraplantar (i.pl.) injection of 0.1 mL of 1% carrageenan solution in PBS into the rat’s right hind paw, according to the modified method of Winter and Lence, as described previously; (n = 84). […] Vehicle (1% Tween 80) was administered by the same route as the tested compounds.

[6] = early phase, 3 h after oxaliplatin
[7] = late phase, 7 days after oxaliplatin
[8] = 10 mg/kg i.p., 1 h after carrageenan
[9] = 10 mg/kg i.p., 2 h after carrageenan
[10] = 10 mg/kg i.p., 3 h after carrageenan
[11] = 20 mg/kg i.p., 1 h after carrageenan
[12] = 20 mg/kg i.p., 2 h after carrageenan
[13] = 20 mg/kg i.p., 3 h after carrageenan

Q: `O=C1c2ccccc2C(=O)N1CC(O)CN1CCN(C(c2ccccc2)c2ccccc2)CC1` (stereo not shown) [Compound F4] was tested. Which “Pain threshold after compound administration (von Frey)” value (shortened to “Pain threshold … (von Frey)”) ([1]; 30 min before the test) did it give?
A: Its value is 3.98 ± 0.23 g.

Q: What about the “Analgesic activity (von Frey)” value ([1]; vs pre-drug threshold) of the same compound?
A: The value was 38.29%.

Q: And the “Analgesic activity (von Frey)” value [2, 6]?
A: The value was 76.2%.

Q: And the “Pain threshold … (von Frey)” value [2, 6]?
A: Its value is 3.56 ± 0.32 g.

Q: What about the “Analgesic activity (von Frey)” value [2, 7] of the same compound?
A: The value was 24.39%.

Q: And the “Pain threshold … (von Frey)” value [2, 7]?
A: The value was 3.57 ± 0.33 g.

Q: And the “Reduction of pain reaction (licking duration), neurogenic phase” value (“Reduction of pain reaction” for short) ([3]; 5 mg/kg i.p.)?
A: The value was “did not attenuate the nociceptive response”.

Q: And the “Reduction of pain reaction” value ([3]; 10 mg/kg i.p.)?
A: Its value is “did not attenuate the nociceptive response”.

Q: What about the “Reduction of pain reaction” value ([3]; 20 mg/kg i.p.) of the same compound?
A: The value was 48.3%.

Q: What about the “Reduction of pain response, inflammatory phase” value ([3]; 10 mg/kg i.p.) of the same compound?
A: The value was 29.5%.

Q: What about the “Reduction of pain response, inflammatory phase” value ([3]; 20 mg/kg i.p.) of the same compound?
A: The value was 42%.

Q: What about the “Pain Threshold” value ([4]; 10 mg/kg i.p., 0 h (before carrageenan)) of the same compound?
A: Its value is 131.7 ± 1.7 g.

Q: And the “Pain Threshold” value [4, 8]?
A: Its value is 139.2 ± 2.0 g.

Q: And the “Pain Threshold” value [4, 9]?
A: Its value is 141.7 ± 1.7 g.

Q: What about the “Pain Threshold” value [4, 10] of the same compound?
A: The value was 139.2 ± 1.2 g.

Q: What about the “Increase in pain threshold” value ([4]; 10 mg/kg, 1 h) of the same compound?
A: Its value is 10.5%.

Q: And the “Increase in pain threshold” value ([4]; 10 mg/kg, 2 h)?
A: Its value is 13.4%.

Q: What about the “Increase in pain threshold” value ([4]; 10 mg/kg, 3 h) of the same compound?
A: Its value is 12.9%.

Q: And the “Pain Threshold” value ([4]; 20 mg/kg i.p., 0 h (before carrageenan))?
A: The value was 134.2 ± 1.5 g.

Q: And the “Pain Threshold” value [4, 11]?
A: The value was 144.2 ± 0.8 g.

Q: And the “Pain Threshold” value [4, 12]?
A: The value was 145 ± 1.5 g.

Q: And the “Pain Threshold” value [4, 13]?
A: The value was 140.8 ± 0.8 g.

Q: What about the “Increase in pain threshold” value ([4]; 20 mg/kg, 1 h) of the same compound?
A: The value was 14.4%.

Q: What about the “Increase in pain threshold” value ([4]; 20 mg/kg, 2 h) of the same compound?
A: Its value is 16%.

Q: What about the “Increase in pain threshold” value ([4]; 20 mg/kg, 3 h) of the same compound?
A: Its value is 14.2%.

Q: What about the “Change in Edema Volume” value [5, 8] of the same compound?
A: Its value is 1.37 ± 0.04 mL.

Q: What about the “Change in Edema Volume” value [5, 9] of the same compound?
A: The value was 1.56 ± 0.06 mL.

Q: And the “Change in Edema Volume” value [5, 10]?
A: Its value is 1.85 ± 0.04 mL.

Q: What about the “Reduction in edema volume” value ([5]; 10 mg/kg, 1 h) of the same compound?
A: The value was 8.7%.

Q: And the “Reduction in edema volume” value ([5]; 10 mg/kg, 2 h)?
A: Its value is 17%.

Q: What about the “Reduction in edema volume” value ([5]; 10 mg/kg, 3 h) of the same compound?
A: Its value is 15.5%.

Q: And the “Change in Edema Volume” value [5, 11]?
A: Its value is 1.23 ± 0.01 mL.

Q: And the “Change in Edema Volume” value [5, 12]?
A: The value was 1.47 ± 0.05 mL.

Q: What about the “Change in Edema Volume” value [5, 13] of the same compound?
A: The value was 1.73 ± 0.02 mL.

Q: And the “Reduction in edema volume” value ([5]; 20 mg/kg, 1 h)?
A: The value was 18%.

Q: And the “Reduction in edema volume” value ([5]; 20 mg/kg, 2 h)?
A: The value was 21.8%.

Q: And the “Reduction in edema volume” value ([5]; 20 mg/kg, 3 h)?
A: The value was 21%.
